What follows are compounds tested against T1, Renin (Homo sapiens) (UniProt P00797) (assay: In vitro inhibitory activity against monkey plasma renin was determined at 10e-6 M). Details: Cercopithecidae, target entry is the homologue from another species.
T1 sequence (whole entry): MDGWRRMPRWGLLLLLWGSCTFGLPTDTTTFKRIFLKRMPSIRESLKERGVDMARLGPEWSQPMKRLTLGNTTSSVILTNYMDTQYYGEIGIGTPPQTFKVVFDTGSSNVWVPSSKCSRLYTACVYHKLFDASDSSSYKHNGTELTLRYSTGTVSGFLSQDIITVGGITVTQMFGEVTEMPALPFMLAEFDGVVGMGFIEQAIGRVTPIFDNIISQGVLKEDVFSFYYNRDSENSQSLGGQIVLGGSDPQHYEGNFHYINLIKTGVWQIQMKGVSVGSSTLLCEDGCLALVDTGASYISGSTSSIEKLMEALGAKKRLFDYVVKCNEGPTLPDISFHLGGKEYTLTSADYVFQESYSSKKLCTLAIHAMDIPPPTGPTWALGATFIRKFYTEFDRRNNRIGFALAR
Format: cell-free

| inhibition | SMILES |
| --- | --- |
| 9.8% | CC(C)C[C@H](O)[C@H](O)[C@H](CC1CCCCC1)NC(=O)CCC(=O)[C@@H]1Cc2ccccc2CN1C(=O)OC(C)(C)C |
| 0% | CC(C)C[C@H](O)[C@H](O)[C@H](CC1CCCCC1)NC(=O)CCC(O)[C@@H]1Cc2ccccc2CN1C(=O)OC(C)(C)C (stereo partly specified) |
| 11.9% | CC(C)C[C@H](O)[C@H](O)[C@H](CC1CCCCC1)NC(=O)CNC(=O)[C@@H]1Cc2ccccc2CN1C(=O)OC(C)(C)C |

The compounds below were run against T2, Renin (Homo sapiens, UniProt P00797) (assay: In vitro inhibitory activity against monkey plasma renin). Details: target entry is the homologue from another species.
T2 sequence (P00797 whole entry): T1 sequence (whole entry)
Format: cell-free, Cercopithecidae

| IC50 | SMILES |
| --- | --- |
| 146 nM | C=CC[C@H](NC(=O)[C@@H]1Cc2ccccc2CN1C(=O)OC(C)(C)C)C(=O)N[C@@H](CC1CCCCC1)[C@@H](O)[C@@H](O)CC(C)C |
| 325 nM | C=CC[C@H](NC(=O)[C@H]1Cc2ccccc2CN1C(=O)OC(C)(C)C)C(=O)N[C@@H](CC1CCCCC1)[C@@H](O)[C@@H](O)CC(C)C |
| 0.42 nM | C=CC[C@H](NC(=O)[C@H](Cc1ccccc1)NC(=O)OC(C)(C)C)C(=O)N[C@@H](CC1CCCCC1)[C@@H](O)[C@@H](O)CC(C)C |
| 2.89 nM | C=CC[C@H](NC(=O)[C@@H]1Cc2ccccc2CN1S(=O)(=O)N1CCOCC1)C(=O)N[C@@H](CC1CCCCC1)[C@@H](O)[C@@H](O)CC(C)C |
| 3.6 nM | CC(C)C[C@H](O)[C@H](O)[C@H](CC1CCCCC1)NC(=O)CNC(=O)[C@H](Cc1ccccc1)NS(=O)(=O)N1CCOCC1 |
| 101 nM | CC(C)C[C@H](O)[C@H](O)[C@H](CC1CCCCC1)NC(=O)CNC(=O)[C@@H]1Cc2ccccc2CN1S(=O)(=O)N1CCOCC1 |
| 373 nM | C=CC[C@H](NC(=O)[C@H]1Cc2ccccc2CN1)C(=O)N[C@@H](CC1CCCCC1)[C@@H](O)[C@@H](O)CC(C)C |
| 11.5 nM | C=CC[C@H](NC(=O)[C@@H]1Cc2ccccc2CN1)C(=O)N[C@@H](CC1CCCCC1)[C@@H](O)[C@@H](O)CC(C)C |

Reference: ChEMBL document CHEMBL1127956, “Tetrahydroisoquinoline as a phenylalanine replacement in renin inhibitors” (Bioorg Med Chem Lett, 1994)
